# In US10597388B2, “Pyridazinone herbicides” (FMC CORPORATION, priority 2014, dated 2020):
# What was measured:
# Type in all cases: in vivo
# [1] = system: blackgrass (Alopecurus myosuroides); assay: Test A greenhouse herbicide test, postemergence
# How it was run: (§1)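 Greenhouse postemergence test: formulated chemicals sprayed on one- to two-leaf plants (2 to 10 cm), grown in loam soil blended with sand. Injury assessed visually about 10 d later against untreated controls, scored 0 (no effect) to 100 (complete control).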
# [2] = system: galium (catchweed bedstraw, Galium aparine); assay: Test A greenhouse herbicide test, postemergence
# How it was run: as §1
# [3] = system: chickweed (common chickweed, Stellaria media); assay: Test C greenhouse herbicide test, postemergence
# How it was run: (§2)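 Steps: pot plants in peat-based medium; spray postemergence at 1- to 4-leaf stage; hold in greenhouse 13 to 15 d; score visually against controls from 0 (no effect) to 100 (complete control).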
# [4] = system: oat, wild (wild oat, Avena fatua); assay: Test C greenhouse herbicide test, postemergence
# How it was run: as §2
# kochia (Kochia scoparia) = assay: Test C greenhouse herbicide test, postemergence
# How it was run: as §2
# [5] = system: velvetleaf (Abutilon theophrasti); assay: Test C greenhouse herbicide test, pre- and postemergence
# How it was run: (§3)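 Preemergence: seeds sown in a loam soil–sand blend and sprayed with test chemicals in a non-phytotoxic solvent mixture containing surfactant. Postemergence: plants grown in peat-based medium and treated at 2 to 18 cm (1- to 4-leaf stage). After 13 to 15 d in a greenhouse, injury was visually rated 0–100 against controls.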
# [6] = system: nutsedge, yellow (yellow nutsedge, Cyperus esculentus); assay: as above
# How it was run: as §3
# [7] = system: blackgrass (Alopecurus myosuroides); assay: as above
# How it was run: as §3
# [8] = system: galium (catchweed bedstraw, Galium aparine); assay: as above
# How it was run: as §3
# [9] = system: barnyardgrass (Echinochloa crus-galli); assay: as above
# How it was run: as §3
# [10] = system: ragweed (common ragweed, Ambrosia elatior); assay: as above
# How it was run: as §3
# soybean (Glycine max) = assay: as above
# How it was run: as §3
# [11] = system: ryegrass, Italian (Italian ryegrass, Lolium multiflorum); assay: as above
# How it was run: as §3
# [12] = system: pigweed (Amaranthus retroflexus); assay: as above
# How it was run: as §3
# [13] = 125 g ai/ha, 0 to 100 scale where 0 is no effect and 100 is complete control
# [14] = 500 g ai/ha, 0 to 100 scale, 0 is no effect, 100 is complete control
# [15] = Postemergence, 31 g ai/ha, 0 to 100 scale (0 no effect, 100 complete control)
# [16] = Postemergence, 125 g ai/ha, scale 0 to 100, 0 is no effect, 100 is complete control
# [17] = Postemergence, 250 g ai/ha, scale 0 to 100, 0 no effect, 100 complete control, 13 to 15 d
# [18] = postemergence, 62 g ai/ha, scale 0 to 100, 0 no effect, 100 complete control
# [19] = 500 g ai/ha, visual rating after approx. 10 d, 0 to 100 scale (0 no effect, 100 complete control)
# [20] = Postemergence, 31 g ai/ha, scale 0 to 100 (0 no effect, 100 complete control)
# [21] = Postemergence, 62 g ai/ha, 0 to 100 scale (0 no effect, 100 complete control)
# [22] = postemergence, 125 g ai/ha, scale 0 to 100, 0 no effect, 100 complete control
# [23] = Preemergence, 31 g ai/ha, scale 0 to 100, 0 is no effect, 100 is complete control
# [24] = Preemergence, 62 g ai/ha, scale 0 to 100, 0 is no effect, 100 is complete control
# [25] = Preemergence, 125 g ai/ha, scale 0 to 100, 0 is no effect, 100 is complete control
# [26] = Preemergence, 250 g ai/ha, scale 0 to 100, 0 no effect, 100 complete control
structure (smiles),measurement,setting,value
CCC(=O)Oc1c(C)nn(C)c(=O)c1-c1c(C)ccc2ccccc12 [Compound 78],"Plant response rating, Blackgrass",[1]; [13],30
same,Blackgrass plant response rating,[1]; [14],80
same,"Plant response rating, Galium",[2]; [13],80
same,Galium plant response rating,[2]; [14],100
same,Chickweed plant response rating,[3]; [15],30
same,"Plant response rating, Chickweed",[3]; [16],70
same,"Plant response rating, Chickweed",[3]; [17],80
same,Chickweed plant response rating,[3]; [18],60
same,"Oat, Wild plant response rating",[4]; [15],35
same,"Plant response rating, Oat, Wild",[4]; [16],60
same,"Plant response rating, Oat, Wild",[4]; [17],60
same,"Oat, Wild plant response rating",[4]; [18],50
same,Kochia plant response rating,kochia (Kochia scoparia); [15],45
same,"Plant response rating, Kochia",kochia (Kochia scoparia); [16],85
same,"Plant response rating, Kochia",kochia (Kochia scoparia); [17],90
same,Kochia plant response rating,kochia (Kochia scoparia); [18],70
same,Velvetleaf plant response rating,[5]; [15],0
same,"Plant response rating, Velvetleaf",[5]; [16],35
same,"Plant response rating, Velvetleaf",[5]; [17],60
same,Velvetleaf plant response rating,[5]; [18],10
same,"Nutsedge, Yellow plant response rating",[6]; [15],0
same,"Plant response rating, Nutsedge, Yellow",[6]; [16],35
same,"Plant response rating, Nutsedge, Yellow",[6]; [17],60
same,"Nutsedge, Yellow plant response rating",[6]; [18],25
same,Blackgrass plant response rating,[7]; [15],0
same,"Plant response rating, Blackgrass",[7]; [16],5
same,"Plant response rating, Blackgrass",[7]; [17],30
same,Blackgrass plant response rating,[7]; [18],5
same,Galium plant response rating,[8]; [15],70
same,"Plant response rating, Galium",[8]; [16],80
same,"Plant response rating, Galium",[8]; [17],95
same,Galium plant response rating,[8]; [18],80
same,Barnyardgrass plant response rating,[9]; [15],15
same,"Plant response rating, Barnyardgrass",[9]; [16],30
same,"Plant response rating, Barnyardgrass",[9]; [17],25
same,Barnyardgrass plant response rating,[9]; [18],25
same,Ragweed plant response rating,[10]; [15],10
same,"Plant response rating, Ragweed",[10]; [16],60
same,"Plant response rating, Ragweed",[10]; [17],75
same,Ragweed plant response rating,[10]; [18],20
same,Soybean plant response rating,soybean (Glycine max); [15],0
same,"Plant response rating, Soybean",soybean (Glycine max); [16],5
same,"Plant response rating, Soybean",soybean (Glycine max); [17],20
same,Soybean plant response rating,soybean (Glycine max); [18],0
same,"Ryegrass, Italian plant response rating",[11]; [15],55
same,"Plant response rating, Ryegrass, Italian",[11]; [16],85
same,"Plant response rating, Ryegrass, Italian",[11]; [17],90
same,"Ryegrass, Italian plant response rating",[11]; [18],65
same,Pigweed plant response rating,[12]; [15],50
same,"Plant response rating, Pigweed",[12]; [16],75
same,"Plant response rating, Pigweed",[12]; [17],80
same,Pigweed plant response rating,[12]; [18],60
CC(=O)Oc1c(C)nn(C)c(=O)c1-c1c(C)sc2ccc(C(F)(F)F)cc12 [Compound 132],"Plant response rating, Blackgrass",[1]; [13],30
same,"Plant response rating, Blackgrass",[1]; [19],50
same,"Plant response rating, Galium",[2]; [13],80
same,"Plant response rating, Galium",[2]; [19],100
same,"Plant response rating, Chickweed",[3]; [20],90
same,Chickweed plant response rating,[3]; [21],90
same,"Plant response rating, Chickweed",[3]; [17],95
same,Chickweed plant response rating,[3]; [22],95
same,"Plant response rating, Oat, Wild",[4]; [20],40
same,"Oat, Wild plant response rating",[4]; [21],60
same,"Plant response rating, Oat, Wild",[4]; [17],90
same,"Oat, Wild plant response rating",[4]; [22],70
same,"Plant response rating, Kochia",kochia (Kochia scoparia); [20],85
same,Kochia plant response rating,kochia (Kochia scoparia); [21],90
same,"Plant response rating, Kochia",kochia (Kochia scoparia); [17],95
same,Kochia plant response rating,kochia (Kochia scoparia); [22],95
same,"Plant response rating, Velvetleaf",[5]; [20],30
same,Velvetleaf plant response rating,[5]; [21],40
same,"Plant response rating, Velvetleaf",[5]; [17],75
same,"Plant response rating, Velvetleaf",[5]; [23],60
same,"Plant response rating, Velvetleaf",[5]; [24],60
same,"Plant response rating, Velvetleaf",[5]; [25],90
same,Velvetleaf plant response rating,[5]; [26],95
same,Velvetleaf plant response rating,[5]; [22],65
same,"Plant response rating, Nutsedge, Yellow",[6]; [20],30
same,"Nutsedge, Yellow plant response rating",[6]; [21],55
same,"Plant response rating, Nutsedge, Yellow",[6]; [17],85
same,"Plant response rating, Nutsedge, Yellow",[6]; [23],10
same,"Plant response rating, Nutsedge, Yellow",[6]; [24],35
same,"Plant response rating, Nutsedge, Yellow",[6]; [25],45
same,"Nutsedge, Yellow plant response rating",[6]; [26],75
same,"Nutsedge, Yellow plant response rating",[6]; [22],75
same,"Plant response rating, Blackgrass",[7]; [20],5
same,Blackgrass plant response rating,[7]; [21],5
same,"Plant response rating, Blackgrass",[7]; [17],45
same,"Plant response rating, Blackgrass",[7]; [23],20
same,"Plant response rating, Blackgrass",[7]; [24],45
same,"Plant response rating, Blackgrass",[7]; [25],40
same,Blackgrass plant response rating,[7]; [26],50
same,Blackgrass plant response rating,[7]; [22],25
same,"Plant response rating, Galium",[8]; [20],90
same,Galium plant response rating,[8]; [21],95
same,"Plant response rating, Galium",[8]; [17],95
same,"Plant response rating, Galium",[8]; [23],90
same,"Plant response rating, Galium",[8]; [24],90
same,"Plant response rating, Galium",[8]; [25],90
same,Galium plant response rating,[8]; [26],98
same,Galium plant response rating,[8]; [22],95
same,"Plant response rating, Barnyardgrass",[9]; [20],15
same,Barnyardgrass plant response rating,[9]; [21],30
same,"Plant response rating, Barnyardgrass",[9]; [16],25
same,"Plant response rating, Barnyardgrass",[9]; [17],25
same,"Plant response rating, Barnyardgrass",[9]; [23],0
same,"Plant response rating, Barnyardgrass",[9]; [24],5
same,"Plant response rating, Barnyardgrass",[9]; [25],35
same,Barnyardgrass plant response rating,[9]; [26],45
same,"Plant response rating, Ragweed",[10]; [20],65
same,Ragweed plant response rating,[10]; [21],95
same,"Plant response rating, Ragweed",[10]; [17],98
same,"Plant response rating, Ragweed",[10]; [23],70
same,"Plant response rating, Ragweed",[10]; [24],85
same,"Plant response rating, Ragweed",[10]; [25],95
same,Ragweed plant response rating,[10]; [26],100
same,Ragweed plant response rating,[10]; [22],95
same,"Plant response rating, Soybean",soybean (Glycine max); [20],0
same,Soybean plant response rating,soybean (Glycine max); [21],0
same,"Plant response rating, Soybean",soybean (Glycine max); [17],20
same,"Plant response rating, Soybean",soybean (Glycine max); [23],0
same,"Plant response rating, Soybean",soybean (Glycine max); [24],0
same,"Plant response rating, Soybean",soybean (Glycine max); [25],0
same,Soybean plant response rating,soybean (Glycine max); [26],0
same,Soybean plant response rating,soybean (Glycine max); [22],0
same,"Plant response rating, Ryegrass, Italian",[11]; [20],80
same,"Ryegrass, Italian plant response rating",[11]; [21],85
same,"Plant response rating, Ryegrass, Italian",[11]; [17],95
same,"Plant response rating, Ryegrass, Italian",[11]; [23],45
same,"Plant response rating, Ryegrass, Italian",[11]; [24],90
same,"Plant response rating, Ryegrass, Italian",[11]; [25],95
same,"Ryegrass, Italian plant response rating",[11]; [26],95
same,"Ryegrass, Italian plant response rating",[11]; [22],95
same,"Plant response rating, Pigweed",[12]; [20],50
same,Pigweed plant response rating,[12]; [21],55
same,"Plant response rating, Pigweed",[12]; [17],65
same,"Plant response rating, Pigweed",[12]; [23],100
same,"Plant response rating, Pigweed",[12]; [24],100
same,"Plant response rating, Pigweed",[12]; [25],100
same,Pigweed plant response rating,[12]; [26],100
same,Pigweed plant response rating,[12]; [22],70
